Assay results reported in paper PMC12102759 (Protein Science : A Publication of the Protein Society, 2025).
Where two headings read alike, the source gives them in different places.

Tested on: G3BP1 NFT2
Type: binding, human
Settings: library DMS-CoV, bait G3BP1 NFT2, prey N, listed as aa = residue placed at this position, column sums to 1

For RNAPRITFGGPSDSTG R5G (RNAPGITFGGPSDSTG), the “DMS PSSM value, R (position 5)” value (peptide RNAPRITFGGPSDSTG) was 0.

For “APRITFGGPSDSTGSN S12P (APRITFGGPSDPTGSN)”, the “DMS PSSM value, S (position 12)” value (peptide APRITFGGPSDSTGSN) was 0.

“APRITFGGPSDSTGSN S15N (APRITFGGPSDSTGNN)” was tested, and the “DMS PSSM value, S (position 15)” value (peptide APRITFGGPSDSTGSN) was 0.001916.

“APRITFGGPSDSTGSN G14Y (APRITFGGPSDSTYSN)” was tested, and the “DMS PSSM value, G (position 14)” value (peptide APRITFGGPSDSTGSN) was 0.003136.

For APRITFGGPSDSTGSN T5H (APRIHFGGPSDSTGSN), the “DMS PSSM value, T (position 5)” value (peptide APRITFGGPSDSTGSN) was 0.

In the case of RNAPRITFGGPSDSTG R5L (RNAPLITFGGPSDSTG), the “DMS PSSM value, R (position 5)” value (peptide RNAPRITFGGPSDSTG) is reported as 0.01198.

For “RNAPRITFGGPSDSTG S12V (RNAPRITFGGPVDSTG)”, the “DMS PSSM value, S (position 12)” value (peptide RNAPRITFGGPSDSTG) was 0.

For “RNAPRITFGGPSDSTG G10Y (RNAPRITFGYPSDSTG)”, the “DMS PSSM value, G (position 10)” value (peptide RNAPRITFGGPSDSTG) was 0.

“RNAPRITFGGPSDSTG S12N (RNAPRITFGGPNDSTG)” was tested, and the “DMS PSSM value, S (position 12)” value (peptide RNAPRITFGGPSDSTG) was 0.

With “APRITFGGPSDSTGSN D11H (APRITFGGPSHSTGSN)” the “DMS PSSM value, D (position 11)” value (peptide APRITFGGPSDSTGSN) was 0.001494.

With APRITFGGPSDSTGSN G7M (APRITFMGPSDSTGSN) the “DMS PSSM value, G (position 7)” value (peptide APRITFGGPSDSTGSN) was 0.

For “APRITFGGPSDSTGSN T13D (APRITFGGPSDSDGSN)”, the “DMS PSSM value, T (position 13)” value (peptide APRITFGGPSDSTGSN) was 9.878e-5.

In the case of APRITFGGPSDSTGSN A1F (FPRITFGGPSDSTGSN), the “DMS PSSM value, A (position 1)” value (peptide APRITFGGPSDSTGSN) is reported as 0.0004523.

RNAPRITFGGPSDSTG F8S (RNAPRITSGGPSDSTG) was tested, and the “DMS PSSM value, F (position 8)” value (peptide RNAPRITFGGPSDSTG) was 0.

With APRITFGGPSDSTGSN G7H (APRITFHGPSDSTGSN) the “DMS PSSM value, G (position 7)” value (peptide APRITFGGPSDSTGSN) was 0.

“RNAPRITFGGPSDSTG D13V (RNAPRITFGGPSVSTG)” was tested, and the “DMS PSSM value, D (position 13)” value (peptide RNAPRITFGGPSDSTG) was 0.

“RNAPRITFGGPSDSTG P11W (RNAPRITFGGWSDSTG)” was tested, and the “DMS PSSM value, P (position 11)” value (peptide RNAPRITFGGPSDSTG) was 0.

For APRITFGGPSDSTGSN G8A (APRITFGAPSDSTGSN), the “DMS PSSM value, G (position 8)” value (peptide APRITFGGPSDSTGSN) was 0.9067.

“RNAPRITFGGPSDSTG T15L (RNAPRITFGGPSDSLG)” was tested, and the “DMS PSSM value, T (position 15)” value (peptide RNAPRITFGGPSDSTG) was 0.

In the case of RNAPRITFGGPSDSTG P4A (RNAARITFGGPSDSTG), the “DMS PSSM value, P (position 4)” value (peptide RNAPRITFGGPSDSTG) is reported as 0.

For “RNAPRITFGGPSDSTG D13H (RNAPRITFGGPSHSTG)”, the “DMS PSSM value, D (position 13)” value (peptide RNAPRITFGGPSDSTG) was 0.

In the case of APRITFGGPSDSTGSN I4M (APRMTFGGPSDSTGSN), the “DMS PSSM value, I (position 4)” value (peptide APRITFGGPSDSTGSN) is reported as 0.

For APRITFGGPSDSTGSN G7V (APRITFVGPSDSTGSN), the “DMS PSSM value, G (position 7)” value (peptide APRITFGGPSDSTGSN) was 0.

RNAPRITFGGPSDSTG N2W (RWAPRITFGGPSDSTG) was tested, and the “DMS PSSM value, N (position 2)” value (peptide RNAPRITFGGPSDSTG) was 0.

With “APRITFGGPSDSTGSN D11K (APRITFGGPSKSTGSN)” the “DMS PSSM value, D (position 11)” value (peptide APRITFGGPSDSTGSN) was 0.

“APRITFGGPSDSTGSN S10D (APRITFGGPDDSTGSN)” was tested, and the “DMS PSSM value, S (position 10)” value (peptide APRITFGGPSDSTGSN) was 0.

With “APRITFGGPSDSTGSN D11W (APRITFGGPSWSTGSN)” the “DMS PSSM value, D (position 11)” value (peptide APRITFGGPSDSTGSN) was 0.001161.

For APRITFGGPSDSTGSN P9G (APRITFGGGSDSTGSN), the “DMS PSSM value, P (position 9)” value (peptide APRITFGGPSDSTGSN) was 0.003052.

With “RNAPRITFGGPSDSTG S12E (RNAPRITFGGPEDSTG)” the “DMS PSSM value, S (position 12)” value (peptide RNAPRITFGGPSDSTG) was 0.6084.

In the case of APRITFGGPSDSTGSN I4N (APRNTFGGPSDSTGSN), the “DMS PSSM value, I (position 4)” value (peptide APRITFGGPSDSTGSN) is reported as 0.

With RNAPRITFGGPSDSTG R5H (RNAPHITFGGPSDSTG) the “DMS PSSM value, R (position 5)” value (peptide RNAPRITFGGPSDSTG) was 0.001007.

For “RNAPRITFGGPSDSTG G16H (RNAPRITFGGPSDSTH)”, the “DMS PSSM value, G (position 16)” value (peptide RNAPRITFGGPSDSTG) was 0.

With “APRITFGGPSDSTGSN S10M (APRITFGGPMDSTGSN)” the “DMS PSSM value, S (position 10)” value (peptide APRITFGGPSDSTGSN) was 0.2077.

RNAPRITFGGPSDSTG I6Y (RNAPRYTFGGPSDSTG) was tested, and the “DMS PSSM value, I (position 6)” value (peptide RNAPRITFGGPSDSTG) was 0.

For “APRITFGGPSDSTGSN D11R (APRITFGGPSRSTGSN)”, the “DMS PSSM value, D (position 11)” value (peptide APRITFGGPSDSTGSN) was 0.

For “APRITFGGPSDSTGSN S10H (APRITFGGPHDSTGSN)”, the “DMS PSSM value, S (position 10)” value (peptide APRITFGGPSDSTGSN) was 0.

APRITFGGPSDSTGSN T5R (APRIRFGGPSDSTGSN) was tested, and the “DMS PSSM value, T (position 5)” value (peptide APRITFGGPSDSTGSN) was 0.

For APRITFGGPSDSTGSN A1N (NPRITFGGPSDSTGSN), the “DMS PSSM value, A (position 1)” value (peptide APRITFGGPSDSTGSN) was 0.016.

APRITFGGPSDSTGSN G7L (APRITFLGPSDSTGSN) was tested, and the “DMS PSSM value, G (position 7)” value (peptide APRITFGGPSDSTGSN) was 0.

For APRITFGGPSDSTGSN P9L (APRITFGGLSDSTGSN), the “DMS PSSM value, P (position 9)” value (peptide APRITFGGPSDSTGSN) was 0.

For “APRITFGGPSDSTGSN S12M (APRITFGGPSDMTGSN)”, the “DMS PSSM value, S (position 12)” value (peptide APRITFGGPSDSTGSN) was 0.01193.

“APRITFGGPSDSTGSN S12F (APRITFGGPSDFTGSN)” was tested, and the “DMS PSSM value, S (position 12)” value (peptide APRITFGGPSDSTGSN) was 0.0072.

RNAPRITFGGPSDSTG R5E (RNAPEITFGGPSDSTG) was tested, and the “DMS PSSM value, R (position 5)” value (peptide RNAPRITFGGPSDSTG) was 0.1354.

With “RNAPRITFGGPSDSTG G10W (RNAPRITFGWPSDSTG)” the “DMS PSSM value, G (position 10)” value (peptide RNAPRITFGGPSDSTG) was 0.

“APRITFGGPSDSTGSN D11I (APRITFGGPSISTGSN)” was tested, and the “DMS PSSM value, D (position 11)” value (peptide APRITFGGPSDSTGSN) was 0.002718.

With “APRITFGGPSDSTGSN D11Q (APRITFGGPSQSTGSN)” the “DMS PSSM value, D (position 11)” value (peptide APRITFGGPSDSTGSN) was 0.007406.

For RNAPRITFGGPSDSTG I6R (RNAPRRTFGGPSDSTG), the “DMS PSSM value, I (position 6)” value (peptide RNAPRITFGGPSDSTG) was 0.

In the case of “APRITFGGPSDSTGSN S15F (APRITFGGPSDSTGFN)”, the “DMS PSSM value, S (position 15)” value (peptide APRITFGGPSDSTGSN) is reported as 0.2174.

In the case of RNAPRITFGGPSDSTG G9R (RNAPRITFRGPSDSTG), the “DMS PSSM value, G (position 9)” value (peptide RNAPRITFGGPSDSTG) is reported as 0.

RNAPRITFGGPSDSTG G9W (RNAPRITFWGPSDSTG) was tested, and the “DMS PSSM value, G (position 9)” value (peptide RNAPRITFGGPSDSTG) was 0.

“RNAPRITFGGPSDSTG T15G (RNAPRITFGGPSDSGG)” was tested, and the “DMS PSSM value, T (position 15)” value (peptide RNAPRITFGGPSDSTG) was 0.
